Blank lines part the entries; values can stand above or below the compound they belong to.
Tests used:
[1] = target: T1, Tyrosine-protein kinase JAK3 (Homo sapiens, UniProt P52333); test: Inhibition of JAK3 (unknown origin) by filter assay
T1 sequence (P52333 whole entry): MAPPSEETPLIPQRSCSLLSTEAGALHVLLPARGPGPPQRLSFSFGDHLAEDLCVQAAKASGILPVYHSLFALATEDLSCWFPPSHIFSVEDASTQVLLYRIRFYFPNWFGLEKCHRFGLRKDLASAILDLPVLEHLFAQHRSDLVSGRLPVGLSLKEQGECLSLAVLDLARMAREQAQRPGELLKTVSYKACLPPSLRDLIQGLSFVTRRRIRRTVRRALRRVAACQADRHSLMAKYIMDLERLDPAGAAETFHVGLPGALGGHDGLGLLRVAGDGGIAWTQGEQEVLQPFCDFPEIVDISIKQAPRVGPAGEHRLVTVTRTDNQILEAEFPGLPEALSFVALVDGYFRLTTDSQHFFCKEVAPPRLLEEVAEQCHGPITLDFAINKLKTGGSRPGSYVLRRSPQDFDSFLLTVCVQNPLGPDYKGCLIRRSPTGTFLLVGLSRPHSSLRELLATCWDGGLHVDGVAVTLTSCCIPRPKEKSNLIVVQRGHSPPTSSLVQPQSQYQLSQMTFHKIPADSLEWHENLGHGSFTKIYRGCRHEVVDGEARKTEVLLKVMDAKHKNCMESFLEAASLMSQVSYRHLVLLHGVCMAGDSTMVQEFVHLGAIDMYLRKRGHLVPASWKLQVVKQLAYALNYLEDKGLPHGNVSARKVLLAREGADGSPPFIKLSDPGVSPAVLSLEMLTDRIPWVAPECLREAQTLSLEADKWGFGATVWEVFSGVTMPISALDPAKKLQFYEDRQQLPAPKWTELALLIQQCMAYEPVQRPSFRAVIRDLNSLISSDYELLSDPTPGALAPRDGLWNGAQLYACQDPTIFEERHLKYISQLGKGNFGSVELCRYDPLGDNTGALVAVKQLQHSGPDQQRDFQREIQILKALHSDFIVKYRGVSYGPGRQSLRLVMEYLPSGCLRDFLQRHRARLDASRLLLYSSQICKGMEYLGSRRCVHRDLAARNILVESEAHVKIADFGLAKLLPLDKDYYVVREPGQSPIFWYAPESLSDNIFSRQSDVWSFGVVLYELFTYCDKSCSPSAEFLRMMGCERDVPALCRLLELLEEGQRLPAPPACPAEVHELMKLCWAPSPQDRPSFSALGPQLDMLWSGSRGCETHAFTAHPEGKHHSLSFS

[2] = target: Tyrosine-protein kinase JAK1 (Homo sapiens, UniProt P23458); test: Inhibition of JAK1 (unknown origin) bycaliper assay
[3] = target: Non-receptor tyrosine-protein kinase TYK2 (Homo sapiens, UniProt P29597); test: Inhibition of TYK2 (unknown origin) by caliper assay
[4] = target: Tyrosine-protein kinase JAK2 (Homo sapiens, UniProt O60674); test: Inhibition of JAK2 (unknown origin) by caliper assay
Blood = test: Inhibition of IL2-induced IFN-gamma production in human whole blood incubated for 18 hrs by ELISA method; type: functional, tissue-based
[5] = Protein binding in human serum; type: ADME, cell-free; details: read-out: PB (converted)
[6] = Permeability by PAMPA method; type: ADME; details: read-out: permeability
[7] = Permeability in human Caco2 cells; type: ADME, cell-based; details: Caco-2, read-out: permeability
[8] = (§1) Fraction unbound in human serum; type: ADME, cell-free
Serum = test: as §1; type: ADME, cell-free
Cytochrome P450 1A2 = target: T2, Cytochrome P450 1A2 (Homo sapiens, UniProt P05177); test: Inhibition of CYP1A2 (unknown origin); type: ADME
T2 sequence (P05177 whole entry): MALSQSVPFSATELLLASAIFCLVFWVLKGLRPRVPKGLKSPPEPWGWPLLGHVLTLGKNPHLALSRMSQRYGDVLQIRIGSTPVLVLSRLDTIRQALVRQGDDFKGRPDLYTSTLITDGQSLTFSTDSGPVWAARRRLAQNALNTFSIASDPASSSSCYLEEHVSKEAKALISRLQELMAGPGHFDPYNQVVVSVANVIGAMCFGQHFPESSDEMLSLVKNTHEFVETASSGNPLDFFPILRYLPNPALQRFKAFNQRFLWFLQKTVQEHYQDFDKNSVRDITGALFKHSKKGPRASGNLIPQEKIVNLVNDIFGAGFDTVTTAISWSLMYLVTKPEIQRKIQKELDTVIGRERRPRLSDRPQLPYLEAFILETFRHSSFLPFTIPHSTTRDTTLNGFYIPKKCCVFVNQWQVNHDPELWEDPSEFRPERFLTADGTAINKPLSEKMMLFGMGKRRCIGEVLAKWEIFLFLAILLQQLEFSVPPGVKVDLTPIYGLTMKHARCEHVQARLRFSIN

[9] = Inhibition of […] (unknown origin); type: ADME, Homo sapiens
Cytochrome P450 2C8 = target: T3, Cytochrome P450 2C8 (Homo sapiens, UniProt P10632); test: Inhibition of CYP2C8 (unknown origin); type: ADME
T3 sequence (P10632 whole entry): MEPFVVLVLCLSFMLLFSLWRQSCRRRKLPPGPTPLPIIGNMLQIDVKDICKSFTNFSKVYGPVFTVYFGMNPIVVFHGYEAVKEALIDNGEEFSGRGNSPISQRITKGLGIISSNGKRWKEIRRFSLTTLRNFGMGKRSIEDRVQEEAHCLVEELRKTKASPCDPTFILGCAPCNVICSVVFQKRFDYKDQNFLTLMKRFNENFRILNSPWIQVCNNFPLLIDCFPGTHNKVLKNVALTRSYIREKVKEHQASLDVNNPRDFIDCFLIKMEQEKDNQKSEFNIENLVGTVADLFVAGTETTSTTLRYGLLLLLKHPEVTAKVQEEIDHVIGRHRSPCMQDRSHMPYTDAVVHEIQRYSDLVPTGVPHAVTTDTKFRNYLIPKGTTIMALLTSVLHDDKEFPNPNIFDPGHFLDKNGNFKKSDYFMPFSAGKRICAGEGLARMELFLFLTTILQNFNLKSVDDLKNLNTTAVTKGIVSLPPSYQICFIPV

Cytochrome P450 2C9 = Cytochrome P450 2C9 (Homo sapiens, UniProt P11712); test: Inhibition of CYP2C9 (unknown origin); type: ADME
Cytochrome P450 2D6 = Cytochrome P450 2D6 (Homo sapiens, UniProt P10635); test: Inhibition of CYP2D6 (unknown origin); type: ADME
Cytochrome P450 3A4 = Cytochrome P450 3A4 (Homo sapiens, UniProt P08684); test: Inhibition of CYP3A4 (unknown origin); type: ADME
[10] = Half life mouse liver microsomes; type: ADME
[11] = Half life human liver microsomes; type: ADME
[12] = AUC in balb/c mouse at 2 mg/kg, iv; type: ADME, organism-based; set-up: dose 2 mg/kg, route intravenous; details: plasma
[13] = Half life in balb/c mouse at 2 mg/kg, iv; type: ADME, organism-based; set-up: dose 2 mg/kg, route intravenous; details: in vivo
[14] = Clearance in balb/c mouse at 2 mg/kg, iv; type: ADME, organism-based; set-up: dose 2 mg/kg, route intravenous; details: in vivo
[15] = Volume of distribution at steady state in balb/c mouse at 2 mg/kg, iv; type: ADME, organism-based; set-up: dose 2 mg/kg, route intravenous; details: in vivo, read-out: Vdss
[16] = Cmax in balb/c mouse at 2 mg/kg, po; type: ADME, organism-based; set-up: dose 2 mg/kg, route oral; details: in vivo
[17] = Tmax in balb/c mouse at 2 mg/kg, po; type: ADME, organism-based; set-up: dose 2 mg/kg, route oral; details: in vivo
[18] = AUC in balb/c mouse at 2 mg/kg, po; type: ADME, organism-based; set-up: dose 2 mg/kg, route oral; details: plasma
[19] = Half life in balb/c mouse at 2 mg/kg, po; type: ADME, organism-based; set-up: dose 2 mg/kg, route oral; details: in vivo
[20] = Oral bioavailability in balb/c mouse at 2 mg/kg; type: ADME, organism-based; details: in vivo
[21] = Cmax in balb/c mouse at 10 mg/kg, po; type: ADME, organism-based; set-up: dose 10 mg/kg, route oral; details: in vivo
[22] = Tmax in balb/c mouse at 10 mg/kg, po; type: ADME, organism-based; set-up: dose 10 mg/kg, route oral; details: in vivo
[23] = AUC in balb/c mouse at 10 mg/kg, po; type: ADME, organism-based; set-up: dose 10 mg/kg, route oral; details: plasma
[24] = Half life in balb/c mouse at 10 mg/kg, po; type: ADME, organism-based; set-up: dose 10 mg/kg, route oral; details: in vivo
[25] = Oral bioavailability in balb/c mouse at 10 mg/kg; type: ADME, organism-based; details: in vivo
[26] = Cmax in balb/c mouse at 50 mg/kg, po; type: ADME, organism-based; set-up: dose 50 mg/kg, route oral; details: in vivo
[27] = Tmax in balb/c mouse at 50 mg/kg, po; type: ADME, organism-based; set-up: dose 50 mg/kg, route oral; details: in vivo
[28] = AUC in balb/c mouse at 50 mg/kg, po; type: ADME, organism-based; set-up: dose 50 mg/kg, route oral; details: plasma
[29] = Half life in balb/c mouse at 50 mg/kg, po; type: ADME, organism-based; set-up: dose 50 mg/kg, route oral; details: in vivo
[30] = Oral bioavailability in balb/c mouse at 50 mg/kg; type: ADME, organism-based; details: in vivo

Sequence of Tyrosine-protein kinase JAK2 (O60674 whole entry): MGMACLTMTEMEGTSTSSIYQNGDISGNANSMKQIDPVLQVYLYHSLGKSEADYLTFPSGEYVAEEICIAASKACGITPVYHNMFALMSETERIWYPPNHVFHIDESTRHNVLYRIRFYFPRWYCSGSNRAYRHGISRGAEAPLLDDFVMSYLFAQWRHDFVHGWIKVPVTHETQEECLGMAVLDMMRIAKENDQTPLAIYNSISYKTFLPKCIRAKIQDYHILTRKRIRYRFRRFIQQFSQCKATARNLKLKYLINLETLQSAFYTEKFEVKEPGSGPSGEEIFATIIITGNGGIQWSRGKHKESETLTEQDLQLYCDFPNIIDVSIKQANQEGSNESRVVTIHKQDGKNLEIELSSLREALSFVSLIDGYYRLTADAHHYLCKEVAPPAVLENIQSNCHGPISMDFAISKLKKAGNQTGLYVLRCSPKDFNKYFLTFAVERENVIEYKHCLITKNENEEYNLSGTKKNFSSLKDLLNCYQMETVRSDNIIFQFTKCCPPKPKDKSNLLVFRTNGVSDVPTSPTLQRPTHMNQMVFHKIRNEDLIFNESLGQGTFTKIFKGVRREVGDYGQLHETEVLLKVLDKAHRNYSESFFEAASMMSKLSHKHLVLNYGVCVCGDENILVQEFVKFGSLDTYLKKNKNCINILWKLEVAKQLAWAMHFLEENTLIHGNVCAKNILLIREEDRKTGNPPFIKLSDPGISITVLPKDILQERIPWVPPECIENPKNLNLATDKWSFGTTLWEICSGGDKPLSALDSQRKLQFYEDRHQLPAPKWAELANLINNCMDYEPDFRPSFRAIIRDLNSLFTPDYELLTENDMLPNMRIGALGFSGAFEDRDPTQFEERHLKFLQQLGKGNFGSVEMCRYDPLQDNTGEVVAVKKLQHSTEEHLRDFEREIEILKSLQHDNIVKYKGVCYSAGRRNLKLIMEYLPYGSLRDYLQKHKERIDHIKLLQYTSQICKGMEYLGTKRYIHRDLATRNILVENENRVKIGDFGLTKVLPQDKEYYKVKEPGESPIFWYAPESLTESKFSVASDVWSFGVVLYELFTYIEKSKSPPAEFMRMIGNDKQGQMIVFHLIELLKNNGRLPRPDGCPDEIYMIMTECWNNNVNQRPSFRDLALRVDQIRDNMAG
Sequence of Tyrosine-protein kinase JAK1 (P23458 whole entry): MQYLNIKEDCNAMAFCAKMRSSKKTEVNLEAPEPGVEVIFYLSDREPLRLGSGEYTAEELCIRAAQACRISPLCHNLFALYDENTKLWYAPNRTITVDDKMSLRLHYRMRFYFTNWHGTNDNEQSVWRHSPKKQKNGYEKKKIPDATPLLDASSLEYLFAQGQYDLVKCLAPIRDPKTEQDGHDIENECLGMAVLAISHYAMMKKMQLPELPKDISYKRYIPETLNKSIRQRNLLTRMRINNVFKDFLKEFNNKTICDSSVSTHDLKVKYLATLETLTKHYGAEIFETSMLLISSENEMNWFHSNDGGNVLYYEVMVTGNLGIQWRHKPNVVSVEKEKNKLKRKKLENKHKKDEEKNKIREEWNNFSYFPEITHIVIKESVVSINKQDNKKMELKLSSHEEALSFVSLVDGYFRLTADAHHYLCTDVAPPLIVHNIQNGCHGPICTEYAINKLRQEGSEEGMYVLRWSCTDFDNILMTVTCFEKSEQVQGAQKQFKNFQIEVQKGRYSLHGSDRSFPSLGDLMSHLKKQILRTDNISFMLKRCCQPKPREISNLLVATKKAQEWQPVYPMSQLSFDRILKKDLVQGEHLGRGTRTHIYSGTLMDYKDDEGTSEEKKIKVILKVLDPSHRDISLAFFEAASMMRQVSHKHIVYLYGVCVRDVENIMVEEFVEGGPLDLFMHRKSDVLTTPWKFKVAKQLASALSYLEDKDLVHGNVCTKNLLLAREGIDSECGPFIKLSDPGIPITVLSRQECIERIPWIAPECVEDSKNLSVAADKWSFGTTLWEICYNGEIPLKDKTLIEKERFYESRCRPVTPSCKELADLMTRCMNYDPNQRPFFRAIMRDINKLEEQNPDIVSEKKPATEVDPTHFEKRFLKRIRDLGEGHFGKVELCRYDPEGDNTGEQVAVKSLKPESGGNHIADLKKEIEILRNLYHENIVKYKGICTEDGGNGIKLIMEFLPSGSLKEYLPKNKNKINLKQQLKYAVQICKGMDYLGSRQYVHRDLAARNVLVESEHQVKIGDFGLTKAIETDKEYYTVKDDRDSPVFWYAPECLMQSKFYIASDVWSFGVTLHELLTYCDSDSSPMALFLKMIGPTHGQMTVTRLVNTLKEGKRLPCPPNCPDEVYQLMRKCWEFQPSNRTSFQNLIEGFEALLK
Sequence of Non-receptor tyrosine-protein kinase TYK2 (P29597 whole entry): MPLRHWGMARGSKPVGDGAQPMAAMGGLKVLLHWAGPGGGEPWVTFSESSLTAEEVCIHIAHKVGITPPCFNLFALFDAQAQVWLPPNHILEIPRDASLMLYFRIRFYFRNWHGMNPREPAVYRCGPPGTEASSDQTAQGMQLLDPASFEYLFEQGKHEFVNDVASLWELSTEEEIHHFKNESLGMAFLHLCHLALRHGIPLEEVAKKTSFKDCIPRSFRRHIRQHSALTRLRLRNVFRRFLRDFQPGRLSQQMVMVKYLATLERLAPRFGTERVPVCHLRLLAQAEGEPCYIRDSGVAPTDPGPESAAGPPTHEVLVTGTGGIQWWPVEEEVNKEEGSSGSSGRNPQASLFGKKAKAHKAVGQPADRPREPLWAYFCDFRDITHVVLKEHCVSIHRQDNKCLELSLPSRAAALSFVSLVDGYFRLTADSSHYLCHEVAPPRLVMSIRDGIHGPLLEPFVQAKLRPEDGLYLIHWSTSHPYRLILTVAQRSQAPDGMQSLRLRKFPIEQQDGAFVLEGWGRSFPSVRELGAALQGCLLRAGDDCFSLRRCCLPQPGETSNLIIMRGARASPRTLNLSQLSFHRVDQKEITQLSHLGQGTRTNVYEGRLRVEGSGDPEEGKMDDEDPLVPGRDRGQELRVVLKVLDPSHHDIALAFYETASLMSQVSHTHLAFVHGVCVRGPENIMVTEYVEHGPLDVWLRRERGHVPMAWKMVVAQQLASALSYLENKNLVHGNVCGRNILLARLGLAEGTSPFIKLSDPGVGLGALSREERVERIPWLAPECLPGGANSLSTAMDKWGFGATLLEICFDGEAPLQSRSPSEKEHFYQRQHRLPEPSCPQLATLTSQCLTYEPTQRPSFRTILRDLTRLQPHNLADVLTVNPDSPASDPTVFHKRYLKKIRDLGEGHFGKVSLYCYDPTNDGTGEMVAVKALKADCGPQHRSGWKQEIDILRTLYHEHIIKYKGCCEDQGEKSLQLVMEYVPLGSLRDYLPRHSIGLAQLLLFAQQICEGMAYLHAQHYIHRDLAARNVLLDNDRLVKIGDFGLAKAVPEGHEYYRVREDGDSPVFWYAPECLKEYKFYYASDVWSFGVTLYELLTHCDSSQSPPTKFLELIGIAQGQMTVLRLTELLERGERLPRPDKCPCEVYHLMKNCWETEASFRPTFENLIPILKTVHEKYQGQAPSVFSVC
Sequence of Cytochrome P450 3A4 (P08684 whole entry): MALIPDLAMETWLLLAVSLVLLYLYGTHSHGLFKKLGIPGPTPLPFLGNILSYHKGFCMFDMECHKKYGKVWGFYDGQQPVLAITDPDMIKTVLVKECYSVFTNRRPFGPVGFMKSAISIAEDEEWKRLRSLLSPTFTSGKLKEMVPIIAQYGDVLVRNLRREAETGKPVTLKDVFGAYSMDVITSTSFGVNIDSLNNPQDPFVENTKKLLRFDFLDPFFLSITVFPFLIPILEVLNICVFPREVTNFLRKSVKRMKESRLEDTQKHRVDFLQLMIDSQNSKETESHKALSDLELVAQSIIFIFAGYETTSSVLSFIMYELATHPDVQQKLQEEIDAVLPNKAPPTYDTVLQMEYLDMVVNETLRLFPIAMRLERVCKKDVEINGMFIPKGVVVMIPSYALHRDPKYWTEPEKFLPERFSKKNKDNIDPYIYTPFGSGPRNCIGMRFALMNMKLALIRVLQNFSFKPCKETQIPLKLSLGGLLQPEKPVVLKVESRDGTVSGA
Sequence of Cytochrome P450 2C9 (P11712 whole entry): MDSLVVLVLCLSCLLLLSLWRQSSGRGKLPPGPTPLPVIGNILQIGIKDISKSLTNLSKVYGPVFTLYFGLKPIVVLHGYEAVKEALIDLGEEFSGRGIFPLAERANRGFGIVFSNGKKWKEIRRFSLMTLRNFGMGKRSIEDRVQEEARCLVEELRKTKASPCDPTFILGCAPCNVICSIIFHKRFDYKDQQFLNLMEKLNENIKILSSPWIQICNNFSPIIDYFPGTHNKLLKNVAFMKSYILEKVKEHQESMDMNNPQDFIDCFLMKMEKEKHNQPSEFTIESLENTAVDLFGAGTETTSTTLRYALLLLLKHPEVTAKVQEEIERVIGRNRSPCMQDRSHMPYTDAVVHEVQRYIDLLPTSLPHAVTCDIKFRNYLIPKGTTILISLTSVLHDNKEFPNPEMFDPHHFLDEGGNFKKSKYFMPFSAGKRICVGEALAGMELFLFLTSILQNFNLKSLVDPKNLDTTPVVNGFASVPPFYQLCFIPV
Sequence of Cytochrome P450 2D6 (P10635 whole entry): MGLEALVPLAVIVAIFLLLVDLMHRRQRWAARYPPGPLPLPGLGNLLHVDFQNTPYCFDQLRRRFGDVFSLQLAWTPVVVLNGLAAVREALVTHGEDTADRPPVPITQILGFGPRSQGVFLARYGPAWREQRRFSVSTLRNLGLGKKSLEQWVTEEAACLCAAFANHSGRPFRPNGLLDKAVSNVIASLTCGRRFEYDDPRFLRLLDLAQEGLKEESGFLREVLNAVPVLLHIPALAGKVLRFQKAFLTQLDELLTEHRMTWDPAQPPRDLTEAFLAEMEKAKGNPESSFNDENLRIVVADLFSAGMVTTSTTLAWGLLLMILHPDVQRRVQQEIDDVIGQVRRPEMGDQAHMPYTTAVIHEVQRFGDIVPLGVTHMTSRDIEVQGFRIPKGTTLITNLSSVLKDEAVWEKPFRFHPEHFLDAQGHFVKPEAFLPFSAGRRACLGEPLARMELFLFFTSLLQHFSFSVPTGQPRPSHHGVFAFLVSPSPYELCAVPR

IC50 [1]: 8 nM
IC50 [2]: 48 nM
IC50 [3]: 16 nM
IC50 [4]: 30 nM
IC50 (Blood): 930 nM
fraction unbound [5]: 0.027
Papp [6]: 86.2 ×10⁻⁶ cm/s
Papp [7]: 19.2 ×10⁻⁶ cm/s
Structure (SMILES): C[C@@H](Nc1c(C(N)=O)cnn2cccc12)C(C)(C)C

IC50 [1]: 5 nM
IC50 [2]: 24 nM
IC50 [3]: 8 nM
IC50 [4]: 16 nM
IC50 (Blood): 1200 nM
fraction unbound [8]: 0.019
fraction unbound [5]: 0.019
Structure (SMILES): CC1(C)CCC[C@H]1Nc1c(C(N)=O)cnn2cccc12

IC50 [1]: 110 nM
IC50 [2]: 270 nM
IC50 [3]: 680 nM
IC50 [4]: 570 nM
Structure (SMILES): C[C@H](Nc1c(C(N)=O)cnn2cccc12)C(C)(C)C

IC50 [1]: 66 nM
IC50 [2]: 56 nM
IC50 [3]: 130 nM
IC50 [4]: 130 nM
Structure (SMILES): CC1(C)CCC[C@@H]1Nc1c(C(N)=O)cnn2cccc12

IC50 [2]: 170 nM
IC50 [3]: 150 nM
IC50 [4]: 250 nM
Structure (SMILES): NC(=O)c1cnn2cccc2c1NC1CCCC1

IC50 [1]: 32 nM
IC50 [2]: 71 nM
IC50 [3]: 52 nM
IC50 [4]: 280 nM
IC50 (Blood): 180 nM
fraction unbound [8]: 0.52
Structure (SMILES): CC1(C)[C@H](Nc2c(C(N)=O)cnn3cccc23)CC[C@@]1(C)N

IC50 [1]: 5 nM
IC50 [2]: 19 nM
IC50 [3]: 97 nM
IC50 [4]: 62 nM
IC50 (Blood): 210 nM
Fu (Serum): 52%
Structure (SMILES): CC1(C)[C@H](Nc2c(C(N)=O)cnn3cccc23)CC[C@]1(C)N

IC50 [1]: 1 nM
IC50 [2]: 9 nM
IC50 [3]: 2 nM
IC50 [4]: 18 nM
IC50 (Blood): 260 nM
fraction unbound [8]: 0.11
Papp [6]: 76.6 ×10⁻⁶ cm/s
Papp [7]: 25.6 ×10⁻⁶ cm/s
IC50 (Cytochrome P450 1A2): > 20 µM
IC50 [9]: > 20 µM
IC50 (Cytochrome P450 2C8): > 20 µM
IC50 (Cytochrome P450 2C9): > 20 µM
IC50 (Cytochrome P450 2D6): > 20 µM
IC50 (Cytochrome P450 3A4): > 20 µM
half-life [10]: 34 min
half-life [11]: 20 min
AUC [12]: 2 µM·h
half-life [13]: 72 min
clearance [14]: 60 mL/min/kg
Vd [15]: 4.8 L/kg
Cmax [16]: 480 nM
Tmax [17]: 30 min
AUC [18]: 0.87 µM·h
half-life [19]: 84 min
bioavailability [20]: 45%
Cmax [21]: 2600 nM
Tmax [22]: 30 min
AUC [23]: 5.7 µM·h
half-life [24]: 96 min
bioavailability [25]: 59%
Cmax [26]: 8.2 µM
Tmax [27]: 30 min
AUC [28]: 21 µM·h
half-life [29]: 120 min
bioavailability [30]: 46%
Structure (SMILES): C[C@]1(F)CCC[C@H]1Nc1c(C(N)=O)cnn2cccc12

IC50 [1]: 47 nM
IC50 [2]: 190 nM
IC50 [3]: 400 nM
IC50 [4]: 130 nM
Structure (SMILES): C[C@@]1(F)CCC[C@@H]1Nc1c(C(N)=O)cnn2cccc12

IC50 [1]: 67 nM
IC50 [2]: 61 nM
IC50 [3]: 30 nM
Structure (SMILES): C[C@@]1(C#N)CCC[C@H]1Nc1c(C(N)=O)cnn2cccc12 (racemic)

IC50 [1]: 16 nM
IC50 [2]: 62 nM
IC50 [3]: 79 nM
IC50 [4]: 130 nM
IC50 (Blood): 1200 nM
Structure (SMILES): CC1(C)[C@@H](O)CC[C@H]1Nc1c(C(N)=O)cnn2cccc12 (racemic)

IC50 [1]: 6 nM
IC50 [2]: 21 nM
IC50 [3]: 22 nM
IC50 [4]: 42 nM
IC50 (Blood): 380 nM
fraction unbound [8]: 0.17
Structure (SMILES): CC1(C)[C@H](O)CC[C@H]1Nc1c(C(N)=O)cnn2cccc12 (racemic)

From ChEMBL document CHEMBL3352641, “Discovery of pyrrolo[1,2-b]pyridazine-3-carboxamides as Janus kinase (JAK) inhibitors” (Bioorg Med Chem Lett, 2014)
